Reference: US12440496B2, “Natriuretic peptide receptor a agonists useful for the treatment of cardiometabolic diseases, kidney disease and diabetes” (Merck Sharp & Dohme LLC, priority 2019, dated 2025)

Target: T1, hNPRA (Homo sapiens, UniProt P16066)
T1 construct: expressed in transfected cells
T1 sequence (P16066 33-1061): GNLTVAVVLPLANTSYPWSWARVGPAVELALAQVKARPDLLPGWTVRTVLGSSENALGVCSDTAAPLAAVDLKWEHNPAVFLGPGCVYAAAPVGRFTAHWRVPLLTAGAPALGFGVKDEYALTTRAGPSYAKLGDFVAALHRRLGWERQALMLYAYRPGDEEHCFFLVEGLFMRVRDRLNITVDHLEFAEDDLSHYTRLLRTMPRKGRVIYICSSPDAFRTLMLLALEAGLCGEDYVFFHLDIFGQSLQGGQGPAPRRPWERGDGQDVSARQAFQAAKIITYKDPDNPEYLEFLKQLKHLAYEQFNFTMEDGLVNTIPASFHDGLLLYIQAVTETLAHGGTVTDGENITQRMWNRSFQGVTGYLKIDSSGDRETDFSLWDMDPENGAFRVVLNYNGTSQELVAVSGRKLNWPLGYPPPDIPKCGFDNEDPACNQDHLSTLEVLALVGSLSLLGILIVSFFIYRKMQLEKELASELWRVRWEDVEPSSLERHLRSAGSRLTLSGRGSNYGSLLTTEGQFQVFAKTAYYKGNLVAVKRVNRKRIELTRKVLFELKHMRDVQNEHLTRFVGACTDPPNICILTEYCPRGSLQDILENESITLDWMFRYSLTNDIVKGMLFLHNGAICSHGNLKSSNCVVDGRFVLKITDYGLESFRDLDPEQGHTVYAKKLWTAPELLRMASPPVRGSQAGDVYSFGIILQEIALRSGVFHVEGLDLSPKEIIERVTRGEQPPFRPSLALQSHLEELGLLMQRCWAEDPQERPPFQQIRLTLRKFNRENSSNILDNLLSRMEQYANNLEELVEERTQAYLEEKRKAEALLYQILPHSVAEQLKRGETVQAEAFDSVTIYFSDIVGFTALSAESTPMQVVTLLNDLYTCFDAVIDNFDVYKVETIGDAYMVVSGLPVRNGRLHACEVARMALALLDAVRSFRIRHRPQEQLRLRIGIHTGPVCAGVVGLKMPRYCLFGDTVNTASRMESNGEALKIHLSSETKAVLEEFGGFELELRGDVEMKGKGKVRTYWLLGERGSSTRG
Test: NPRA Functional Cell Assay (cGMP HTRF, NPRA HEK JumpIn stable cells)
Type: cell-based
Conditions: cGMP production, 1 hour at 37° C., 10-point dose response
Outline: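 cGMP HTRF read-out after 1 hour compound treatment at 37° C. of human NPRA-expressing HEK JumpIn cells, 1500 cells/well, in buffer with phosphodiesterase inhibitors IBMX and RO20 (100 uM each). Signal converted to [cGMP] by calibration curve; EC50s fitted by 4-parameter logistic; 50 nM h-ANP as positive response.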

First: CC(C)(C)[C@H]1CCc2nc3sc(C(=O)N[C@H](CCN4CCC(C(=O)O)CC4)c4cccc(C(=O)NC5CCN(C6CC6)C5)c4)nc3cc2C1 (mixture of isomers) [Example 124, 1-[rac-(3R)-3-[3-[(1-cyclopropylpyrrolidin-3-yl)carbamoyl]phenyl]-3-[[rac-(7S)-7-tert-butyl-5,6,7,8-tetrahydrothiazolo [5,4-b]quinoline-2-carbonyl]amino]propyl]piper idin-1-ium-4-carboxylic acid; 2,2,2-trifluoroacetate]
Second: CN1CC[C@@H](NC(=O)c2cccc([C@@H](CCN3CCC(O)CC3)NC(=O)c3nc4cc5c(nc4s3)CC[C@H](C(C)(C)C)C5)c2)C1 (racemic) [Example 134, rac-(7S)-7-tert-butyl-N-[rac-(1R)-3-(4-hydroxy-1-piperidyl)-1-[3-[[rac-(3R)-1-methylpyrrolidin-3-yl]carbamoyl]phenyl]propyl]-5,6,7,8-tetrahydrothiazolo[5,4-b]quinoline-2-carboxamide]
The EC50 of the first is 7.4-fold higher: 929 nM for the first, 126 nM for the second.

First: CC1(NC(=O)c2cccc([C@@H](CCN3CCC(C(=O)O)CC3)NC(=O)c3nc4cc5c(nc4s3)CC[C@H](C(C)(C)C)C5)c2)CNC1 (racemic) [Example 125, 1-[rac-(3R)-3-[3-[(3-methylazetidin-1-ium-3-yl)carbamoyl]phenyl]-3-[[rac-(7S)-7-tert-butyl-5,6,7,8-tetrahydrothiazolo [5,4-b]quinoline-2-carbonyl]amino]propyl] piperidine-4-carboxylic acid; 2,2,2-trifluoroacetate]
Second: CC(C)(C)[C@H]1CCc2nc3sc(C(=O)N[C@H](CCN4CCC(O)CC4)c4cccc(C(=O)NC5CNC5)c4)nc3cc2C1 (racemic) [Example 136, rac-(7S)-7-tert-butyl-N-[rac-(1R)-1-[3-(azetidin-3-ylcarbamoyl)phenyl]-3-(4-hydroxy-1-piperidyl)propyl]-5,6,7,8-tetrahydrothiazolo[5,4-b]quinoline-2-carboxamide]
The EC50 of the first is 14-fold higher: 2000 nM for the first, 138 nM for the second.

`CC(C)(C)[C@H]1CCc2nc3sc(C(=O)N[C@H](CCN4CCC(O)CC4)c4ccc(-c5csc(C(=O)O)c5)cc4)nc3cc2C1` (racemic) [Example 126, 4-[4-[rac-(1R)-3-(4-hydroxy-1-piperidyl)-1-[[rac-(7S)-7-tert-butyl-5,6,7,8-tetrahydrothiazolo[5,4-b]quinoline-2-carbonyl]amino]propyl]phenylthiophene-2-carboxylic acid] and `CC(C)(C)[C@H]1CCc2nc3sc(C(=O)N[C@H](CCN4CCC(O)CC4)c4ccc(-c5cnc(=O)[nH]c5)cc4)nc3cc2C1` (racemic) [Example 127, rac-(7S)-7-tert-butyl-N-[rac-(1R)-3-(4-hydroxypiperidin-1-ium-1-yl)-1-[4-(2-oxo-1H-pyrimidin-5-yl)phenyl]propyl]-5,6,7,8-tetrahydrothiazolo [5,4-b]quinoline-2-carboxamide; 2,2,2-trifluoroacetate] are within 1.5-fold of each other in EC50: 374 nM for the first, 452 nM for the second.

`CC(C)(C)[C@H]1CCc2nc3sc(C(=O)N[C@H](CCN4CCC(O)CC4)c4ccc(-c5ccc(OCCF)nc5)cc4)nc3cc2C1` (racemic) [Example 128, rac-(7S)-7-tert-butyl-N-[rac-(1R)-1-[4-[6-(2-fluoroethoxy)-3-pyridyl]phenyl]-3-(4-hydroxypiperidin-1-ium-1-yl)propyl]-5,6,7,8-tetrahydrothiazolo[5,4-b] quinoline-2-carboxamide; 2,2,2-trifluoroacetate] and `CC(C)(C)[C@H]1CCc2nc3sc(C(=O)N[C@H](CCN4CCC(O)CC4)c4ccc(-c5ccc(O)cc5)cc4)nc3cc2C1` (racemic) [Example 129, rac-(7S)-7-tert-butyl-N-[rac-(1R)-1-[4-(4-hydroxyphenyl)phenyl]-3-(4-hydroxypiperidin-1-ium-1-yl)propyl]-5,6,7,8-tetrahydrothiazolo[5,4-b] quinoline-2-carboxamide; 2,2,2-trifluoroacetate] are within 1.5-fold of each other in EC50: 1180 nM for the first, 1440 nM for the second.

`CC(C)(C)[C@H]1CCc2nc3sc(C(=O)N[C@H](CCN4CCC(O)CC4)c4cccc(C(=O)N[C@@H]5CCNC5)c4)nc3cc2C1` (racemic) [Example 130, rac-(7S)-7-tert-butyl-N-[rac-(1R)-3-(4-hydroxy-1-piperidyl)-1-[3-[[rac-(3R)-pyrrolidin-3-yl]carbamoyl]phenyl]propyl]-5,6,7,8-tetrahydrothiazolo[5,4-b]quinoline-2-carboxamide] and `CC(C)(C)[C@H]1CCc2nc3sc(C(=O)N[C@H](CCN4CCC(O)CC4)c4cccc(C(=O)NC5CCNCC5)c4)nc3cc2C1` (racemic) [Example 133, rac-(7S)-7-tert-butyl-N-[rac-(1R)-3-(4-hydroxy-1-piperidyl)-1-[3-(4-piperidylcarbamoyl)phenyl]propyl]-5,6,7,8-tetrahydrothiazolo[5,4-b]quinoline-2-carboxamide] are within 1.5-fold of each other in EC50: 96.5 nM for the first, 117 nM for the second.

`CC(C)(C)[C@H]1CCc2nc3sc(C(=O)N[C@H](CCN4CCC(O)CC4)c4cccc(C(=O)N5CC6(CCCNC6)C5)c4)nc3cc2C1` (racemic) [Example 131, rac-(7S)-7-tert-butyl-N-[rac-(1R)-1-[3-(2,8-diazaspiro[3.5]nonane-2-carbonyl)phenyl]-3-(4-hydroxy-1-piperidyl)propyl]-5,6,7,8-tetrahydrothiazolo[5,4-b]quinoline-2-carboxamide] and `CC(C)(C)[C@H]1CCc2nc3sc(C(=O)N[C@H](CCN4CCC(O)CC4)c4cccc(C(=O)N5CC(CN6CCCC6)C5)c4)nc3cc2C1` (racemic) [Example 132, rac-(7S)-7-tert-butyl-N-[rac-(1R)-3-(4-hydroxy-1-piperidyl)-1-[3-[3-(pyrrolidin-1-ylmethyl)azetidine-1-carbonyl]phenyl]propyl]-5,6,7,8-tetrahydrothiazolo[5,4-b]quinoline-2-carboxamide] are within 1.5-fold of each other in EC50: 96.7 nM for the first, 102 nM for the second.

`CC(C)(C)[C@H]1CCc2nc3sc(C(=O)N[C@H](CCN4CCC(O)CC4)c4cccc(C(=O)N[C@@H]5CNC[C@H]5O)c4)nc3cc2C1` (racemic) [Example 135, rac-(7S)-7-tert-butyl-N-[rac-(1R)-3-(4-hydroxy-1-piperidyl)-1-[3-[[rac-(3R,4R)-4-hydroxypyrrolidin-3-yl]carbamoyl]phenyl]propyl]-5,6,7,8-tetrahydrothiazolo[5,4-b]quinoline-2-carboxamide] and `CC(C)(C)[C@H]1CCc2nc3sc(C(=O)N[C@H](CCN4CCC(O)CC4)c4cccc(C(=O)N[C@H]5CNC[C@@H]5O)c4)nc3cc2C1` (racemic) [Example 137, rac-(7S)-7-tert-butyl-N-[rac-(1R)-3-(4-hydroxy-1-piperidyl)-1-[3-[[rac-(3S,4S)-4-hydroxypyrrolidin-3-yl]carbamoyl]phenyl]propyl]-5,6,7,8-tetrahydrothiazolo[5,4-b]quinoline-2-carboxamide] are within 1.5-fold of each other in EC50: 132 nM for the first, 176 nM for the second.

`CN1CC[C@H](NC(=O)c2cccc([C@@H](CCN3CCC(O)CC3)NC(=O)c3nc4cc5c(nc4s3)CC[C@H](C(C)(C)C)C5)c2)C1` (racemic) [Example 138, rac-(7S)-7-tert-butyl-N-[rac-(1R)-3-(4-hydroxy-1-piperidyl)-1-[3-[[rac-(3S)-1-methylpyrrolidin-3-yl]carbamoyl]phenyl]propyl]-5,6,7,8-tetrahydrothiazolo[5,4-b]quinoline-2-carboxamide] and `CN1CCCC(NC(=O)c2cccc([C@@H](CCN3CCC(O)CC3)NC(=O)c3nc4cc5c(nc4s3)CC[C@H](C(C)(C)C)C5)c2)C1` (mixture of isomers) [Example 140, rac-(7S)-7-tert-butyl-N-[rac-(1R)-3-(4-hydroxy-1-piperidyl)-1-[3-[(1-methyl-3-piperidyl)carbamoyl]phenyl]propyl]-5,6,7,8-tetrahydrothiazolo[5,4-b]quinoline-2-carboxamide] are within 1.5-fold of each other in EC50: 210 nM for the first, 224 nM for the second.

`CC1(C)NCCC1NC(=O)c1cccc([C@@H](CCN2CCC(O)CC2)NC(=O)c2nc3cc4c(nc3s2)CC[C@H](C(C)(C)C)C4)c1` (mixture of isomers) [Example 139, rac-(7S)-7-tert-butyl-N-[rac-(1R)-1-[3-[(2,2-dimethylpyrrolidin-3-yl)carbamoyl]phenyl]-3-(4-hydroxy-1-piperidyl)propyl]-5,6,7,8-tetrahydrothiazolo[5,4-b]quinoline-2-carboxamide] and `CN1CCC(NC(=O)c2cccc([C@@H](CCN3CCC(O)CC3)NC(=O)c3nc4cc5c(nc4s3)CC[C@H](C(C)(C)C)C5)c2)CC1` (racemic) [Example 141, rac-(7S)-7-tert-butyl-N-[rac-(1R)-3-(4-hydroxy-1-piperidy1)-1-[3-[(1-methyl-4-piperidyl)carbamoyl]phenyl]propyl]-5,6,7,8-tetrahydrothiazolo[5,4-b]quinoline-2-carboxamide] are within 1.5-fold of each other in EC50: 219 nM for the first, 258 nM for the second.
